Data on four molecules can be found in paper PMC8819286 (Cancer Science, 2021).

Experiment [1] concerns EGFR^19del/T790M/C797S–triple‐mutant cells. To be noted: cited from earlier work.
The test system of experiment [2] is BaF3‐EGFR^19del/T790M cells. Kind of experiment: Proliferation assay. Format: cell-based. The settings on record: 72 h, read-out: IC50, antiproliferative, BaF3‐EGFR^19del/T790M.
Experiment [3] has as its system BaF3‐EGFR^19del/T790M/C797S cells. As to the kind of experiment: Proliferation assay. It counts as cell-based. The settings on record: 72 h, read-out: IC50, antiproliferative, BaF3‐EGFR^19del/T790M/C797S.
Experiment [4] has the same test system. Kind of experiment: Apoptosis, Annexin V‐FITC/PI flow cytometry. It counts as cell-based. The settings on record: concentrations between 30 nmol/L and 300 nmol/L, 48 h. Background: Flow cytometry measures light scatter and fluorescence of single cells or particles in a stream.
The next experiment relates to EGFR^T790M patients. To be noted: cited from earlier work.
The subject of a further experiment is PC‐9‐OR cells. As to the kind of experiment: Apoptosis, Annexin V‐FITC/PI flow cytometry. It counts as cell-based. To be noted: concentrations between 30 nmol/L and 300 nmol/L, 48 h.
In experiment [5] the test system is PC‐9‐OR cells (EGFR^19del/T790M/C797S). As to the kind of experiment: Proliferation assay. It counts as cell-based. The settings on record: PC9-OR, 72 h, read-out: IC50, antiproliferative, PC‐9‐OR cells.
For another experiment, the system named is PC‐9 (EGFR^19del) cells. Kind of experiment: Proliferation assay. To be noted: Homo sapiens, PC-9, 72 h, read-out: IC50, antiproliferative, PC‐9 cells. Format: cell-based.

Structures are written as SMILES. Where two headings read alike, the source gives them in different places.

For `COc1cc(N2CCC(N3CCN(C)CC3)CC2)ccc1Nc1ncc(Cl)c(Nc2ccccc2P(C)(C)=O)n1` [Brigatinib], the “effectiveness against EGFR^19del/T790M/C797S–triple‐mutant cells” value (from here on “effectiveness”) in experiment [1] (in vitro and in vivo) is listed as “effective”.
For `O=C(Nc1nccs1)C(c1cc(F)ccc1O)N1Cc2ccccc2C1=O` (stereo not shown) [EAI045], in experiment [1], the “effectiveness” value is “not effective”.
In the case of `O=C(Nc1nccs1)C(c1cc(F)ccc1O)N1Cc2ccc(-c3ccc(N4CCNCC4)cc3)cc2C1=O` (stereo not shown) [JBJ‐04‐125‐02], the “effectiveness” value in experiment [1] is reported as “not effective”.
On to `C=CC(=O)Nc1cc(Nc2nccc(-c3cn(C)c4ccccc34)n2)c(OC)cc1N(C)CCN(C)C` [Osimertinib], for which the IC50 in experiment [2] came out at 40 nM; in experiment [3], 3.38 µM; in experiment [5], 4.85 µM; with PC‐9 (EGFR^19del) cells, 80 nM. The “apoptosis (in words)” value (in experiment [4]; in the experiment with PC‐9‐OR cells) was “hardly caused any significant apoptosis” throughout. For the same molecule, in the experiment with EGFR^T790M patients, the response rate was 61%.
